Results taken from patent US10167262B2, “Herbicidal substituted 3-arylpyrazoles” (FMC CORPORATION, priority 2014, dated 2019).

Legend:
Assay in all cases: Test A pre-/postemergence greenhouse herbicide test, visual injury rating 0-100
Format in all cases: in vivo
[1] = test system: barnyardgrass (Echinochloa crus-galli)
Excerpt: (§1) Seeds of plant species selected from barnyardgrass (Echinochloa crus-galli), large (Lg) crabgrass (Digitaria sanguinalis), giant foxtail (Setaria faberii), morningglory (Ipomoea spp.), pigweed (Amaranthus retroflexus), velvetleaf (Abutilon theophrasti), wheat (Triticum aestivum), and corn (Zea mays) were planted into a blend of loam soil and sand and treated preemergence with a directed soil spray using test chemicals formulated in a non-phytotoxic solvent mixture which included a surfactant. At the same time these species were also treated with postemergence applications of test chemicals formulated in the same manner. Plants ranged in height from 2 to 10 cm and were in the one- to two-leaf stage for the postemergence treatment. Treated plants and untreated controls were maintained in a greenhouse for approximately 10 days, after which time all treated plants were compared to untreated controls and visually evaluated for injury. Plant response ratings, summarized in Table A, are based on a 0 to 100 scale where 0 is no effect and 100 is complete control. A dash (-) response means no test result.

corn (Zea mays) = test system: corn (Zea mays)
Excerpt: as §1

[2] = test system: giant foxtail (Setaria faberii)
Excerpt: as §1

[3] = test system: large (Lg) crabgrass (Digitaria sanguinalis)
Excerpt: as §1

[4] = test system: morningglory (Ipomoea spp.)
Excerpt: as §1

[5] = test system: pigweed (Amaranthus retroflexus)
Excerpt: as §1

[6] = test system: velvetleaf (Abutilon theophrasti)
Excerpt: as §1

[7] = test system: wheat (Triticum aestivum)
Excerpt: as §1

Structure (SMILES): CC(=O)n1cc(C(=O)c2cncc(F)c2)c(-c2cc(Cl)cc(Cl)c2)n1 [Compound 20]
- Plant response rating (0 to 100 scale), Barnyardgrass ([1]; Postemergence, 1000 g ai/ha): 0
- Plant response rating (0 to 100 scale), Barnyardgrass ([1]; Preemergence, 1000 g ai/ha): 0
- Plant response rating (0 to 100 scale), Corn (corn (Zea mays); Postemergence, 1000 g ai/ha): 0
- Plant response rating (0 to 100 scale), Corn (corn (Zea mays); Preemergence, 1000 g ai/ha): 0
- Plant response rating (0 to 100 scale), Foxtail, Giant ([2]; Postemergence, 1000 g ai/ha): 0
- Plant response rating (0 to 100 scale), Foxtail, Giant ([2]; Preemergence, 1000 g ai/ha): 0
- Plant response rating (0 to 100 scale), Crabgrass, Large ([3]; Postemergence, 1000 g ai/ha): 0
- Plant response rating (0 to 100 scale), Crabgrass, Large ([3]; Preemergence, 1000 g ai/ha): 0
- Plant response rating (0 to 100 scale), Morningglory ([4]; Postemergence, 1000 g ai/ha): 0
- Plant response rating (0 to 100 scale), Morningglory ([4]; Preemergence, 1000 g ai/ha): 0
- Plant response rating (0 to 100 scale), Pigweed ([5]; Postemergence, 1000 g ai/ha): 90
- Plant response rating (0 to 100 scale), Pigweed ([5]; Preemergence, 1000 g ai/ha): 100
- Plant response rating (0 to 100 scale), Velvetleaf ([6]; Postemergence, 1000 g ai/ha): 90
- Plant response rating (0 to 100 scale), Velvetleaf ([6]; Preemergence, 1000 g ai/ha): 80
- Plant response rating (0 to 100 scale), Wheat ([7]; Postemergence, 1000 g ai/ha): 0
- Plant response rating (0 to 100 scale), Wheat ([7]; Preemergence, 1000 g ai/ha): 0

Structure (SMILES): CCn1cc(C(=O)c2cncc(F)c2)c(-c2cc(Cl)cc(Cl)c2)n1 [Compound 21]
- Plant response rating (0 to 100 scale), Barnyardgrass ([1]; Postemergence, 1000 g ai/ha): 0
- Plant response rating (0 to 100 scale), Barnyardgrass ([1]; Preemergence, 1000 g ai/ha): 0
- Plant response rating (0 to 100 scale), Corn (corn (Zea mays); Postemergence, 1000 g ai/ha): 0
- Plant response rating (0 to 100 scale), Corn (corn (Zea mays); Preemergence, 1000 g ai/ha): 0
- Plant response rating (0 to 100 scale), Foxtail, Giant ([2]; Postemergence, 1000 g ai/ha): 0
- Plant response rating (0 to 100 scale), Foxtail, Giant ([2]; Preemergence, 1000 g ai/ha): 0
- Plant response rating (0 to 100 scale), Crabgrass, Large ([3]; Postemergence, 1000 g ai/ha): 10
- Plant response rating (0 to 100 scale), Crabgrass, Large ([3]; Preemergence, 1000 g ai/ha): 0
- Plant response rating (0 to 100 scale), Morningglory ([4]; Postemergence, 1000 g ai/ha): 0
- Plant response rating (0 to 100 scale), Morningglory ([4]; Preemergence, 1000 g ai/ha): 0
- Plant response rating (0 to 100 scale), Pigweed ([5]; Postemergence, 1000 g ai/ha): 100
- Plant response rating (0 to 100 scale), Pigweed ([5]; Preemergence, 1000 g ai/ha): 80
- Plant response rating (0 to 100 scale), Velvetleaf ([6]; Postemergence, 1000 g ai/ha): 90
- Plant response rating (0 to 100 scale), Velvetleaf ([6]; Preemergence, 1000 g ai/ha): 80
- Plant response rating (0 to 100 scale), Wheat ([7]; Postemergence, 1000 g ai/ha): 0
- Plant response rating (0 to 100 scale), Wheat ([7]; Preemergence, 1000 g ai/ha): 0

Structure (SMILES): CON=C(c1ccccc1)c1c[nH]nc1-c1cc(Br)cc(Br)c1 [Compound 29]
- Plant response rating (0 to 100 scale), Barnyardgrass ([1]; Postemergence, 1000 g ai/ha): 0
- Plant response rating (0 to 100 scale), Barnyardgrass ([1]; Preemergence, 1000 g ai/ha): 0
- Plant response rating (0 to 100 scale), Corn (corn (Zea mays); Postemergence, 1000 g ai/ha): 0
- Plant response rating (0 to 100 scale), Corn (corn (Zea mays); Preemergence, 1000 g ai/ha): 0
- Plant response rating (0 to 100 scale), Foxtail, Giant ([2]; Postemergence, 1000 g ai/ha): 10
- Plant response rating (0 to 100 scale), Foxtail, Giant ([2]; Preemergence, 1000 g ai/ha): 0
- Plant response rating (0 to 100 scale), Crabgrass, Large ([3]; Postemergence, 1000 g ai/ha): 0
- Plant response rating (0 to 100 scale), Crabgrass, Large ([3]; Preemergence, 1000 g ai/ha): 0
- Plant response rating (0 to 100 scale), Morningglory ([4]; Postemergence, 1000 g ai/ha): 0
- Plant response rating (0 to 100 scale), Morningglory ([4]; Preemergence, 1000 g ai/ha): 0
- Plant response rating (0 to 100 scale), Pigweed ([5]; Postemergence, 1000 g ai/ha): 90
- Plant response rating (0 to 100 scale), Pigweed ([5]; Preemergence, 1000 g ai/ha): 40
- Plant response rating (0 to 100 scale), Velvetleaf ([6]; Postemergence, 1000 g ai/ha): 90
- Plant response rating (0 to 100 scale), Velvetleaf ([6]; Preemergence, 1000 g ai/ha): 70
- Plant response rating (0 to 100 scale), Wheat ([7]; Postemergence, 1000 g ai/ha): 0
- Plant response rating (0 to 100 scale), Wheat ([7]; Preemergence, 1000 g ai/ha): 0

Structure (SMILES): CON=C(c1cccs1)c1c[nH]nc1-c1cc(Cl)cc(Cl)c1 [Compound 32]
- Plant response rating (0 to 100 scale), Barnyardgrass ([1]; Postemergence, 125 g ai/ha): 0
- Plant response rating (0 to 100 scale), Barnyardgrass ([1]; Postemergence, 500 g ai/ha): 0
- Barnyardgrass plant response rating (0 = no effect, 100 = complete control) ([1]; Preemergence, 125 g ai/ha): 0
- Plant response rating (0 to 100 scale), Barnyardgrass ([1]; Preemergence, 500 g ai/ha): 0
- Plant response rating (0 to 100 scale), Corn (corn (Zea mays); Postemergence, 125 g ai/ha): 0
- Plant response rating (0 to 100 scale), Corn (corn (Zea mays); Postemergence, 500 g ai/ha): 0
- Corn plant response rating (0 = no effect, 100 = complete control) (corn (Zea mays); Preemergence, 125 g ai/ha): 0
- Plant response rating (0 to 100 scale), Corn (corn (Zea mays); Preemergence, 500 g ai/ha): 0
- Plant response rating (0 to 100 scale), Foxtail, Giant ([2]; Postemergence, 125 g ai/ha): 0
- Plant response rating (0 to 100 scale), Foxtail, Giant ([2]; Postemergence, 500 g ai/ha): 0
- Foxtail, Giant plant response rating (0 = no effect, 100 = complete control) ([2]; Preemergence, 125 g ai/ha): 0
- Plant response rating (0 to 100 scale), Foxtail, Giant ([2]; Preemergence, 500 g ai/ha): 0
- Plant response rating (0 to 100 scale), Crabgrass, Large ([3]; Postemergence, 125 g ai/ha): 0
- Plant response rating (0 to 100 scale), Crabgrass, Large ([3]; Postemergence, 500 g ai/ha): 0
- Crabgrass, Large plant response rating (0 = no effect, 100 = complete control) ([3]; Preemergence, 125 g ai/ha): 0
- Plant response rating (0 to 100 scale), Crabgrass, Large ([3]; Preemergence, 500 g ai/ha): 0
- Plant response rating (0 to 100 scale), Morningglory ([4]; Postemergence, 125 g ai/ha): 0
- Plant response rating (0 to 100 scale), Morningglory ([4]; Postemergence, 500 g ai/ha): 0
- Morningglory plant response rating (0 = no effect, 100 = complete control) ([4]; Preemergence, 125 g ai/ha): 0
- Plant response rating (0 to 100 scale), Morningglory ([4]; Preemergence, 500 g ai/ha): 0
- Plant response rating (0 to 100 scale), Pigweed ([5]; Postemergence, 125 g ai/ha): 0
- Plant response rating (0 to 100 scale), Pigweed ([5]; Postemergence, 500 g ai/ha): 60
- Pigweed plant response rating (0 = no effect, 100 = complete control) ([5]; Preemergence, 125 g ai/ha): 0
- Plant response rating (0 to 100 scale), Velvetleaf ([6]; Postemergence, 125 g ai/ha): 60
- Plant response rating (0 to 100 scale), Velvetleaf ([6]; Postemergence, 500 g ai/ha): 70
- Velvetleaf plant response rating (0 = no effect, 100 = complete control) ([6]; Preemergence, 125 g ai/ha): 0
- Plant response rating (0 to 100 scale), Velvetleaf ([6]; Preemergence, 500 g ai/ha): 0
- Plant response rating (0 to 100 scale), Wheat ([7]; Postemergence, 125 g ai/ha): 0
- Plant response rating (0 to 100 scale), Wheat ([7]; Postemergence, 500 g ai/ha): 0
- Wheat plant response rating (0 = no effect, 100 = complete control) ([7]; Preemergence, 125 g ai/ha): 0
- Plant response rating (0 to 100 scale), Wheat ([7]; Preemergence, 500 g ai/ha): 0
